Where only a bound is given, the exact number is not on record here.

In this experiment the target is T1, BCL6 (Homo sapiens, UniProt P41182).
T1 construct: HiBiT-tag knocked into endogenous BCL6 locus using CRISPR; endogenous in cells; host or cells: DHL-4_BCL6_HiBiT cells (CRISPR knock-in)
Put plainly: BCL6_HiBiT degradation assay (2 h). As to conditions: DHL-4_BCL6_HiBiT cells, read-out: YCon (% remaining maximal effect). Format: cell-based. A digest of the protocol: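 DHL-4 cells carrying CRISPR HiBiT knock-in at endogenous BCL6, treated 2 h at 37 °C with 10-point 3-fold dilutions from 1-10 μM. BCL6 level read by Nano-Glo HiBiT lytic luminescence normalized to DMSO; four-parameter fit gives degradation EC50 and Yconstant (% remaining at maximal effect).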
On the technique in general: The HiBiT peptide binds its large partner to form an active luciferase.
Take `CN1C(=O)Cc2cc(Nc3nc(N4CC[C@@H](Nc5ccc6c(C7CCC(=O)NC7=O)nn(C)c6c5)[C@H](O)C4)ncc3Cl)ccc21` (stereo partly drawn) [Example 33, 3-(6-(((3R,4R)-1-(5-chloro-4-((1-methyl-2-oxoindolin-5-yl)amino)pyrimidin-2-yl)-3-hydroxypiperidin-4-yl)amino)-1-methyl-1H-indazol-3-yl)piperidine-2,6-dione]: the Percent BCL6 remaining at maximal degradation (Ycon) was below 20%. Next, `Cn1nc(C2CCC(=O)NC2=O)c2ccc(N3CCN(c4ncc(Cl)c(Nc5ccc6c(c5)CC(=O)N6)n4)CC3)cc21` (centres unmarked) [Example 34, 3-(6-(4-(5-chloro-4-((2-oxoindolin-5-yl)amino)pyrimidin-2-yl)piperazin-1-yl)-1-methyl-1H-indazol-3-yl)piperidine-2,6-dione]: above 60%; `CN1C(=O)Cc2cc(Nc3nc(N4CCN(c5ccc6c(C7CCC(=O)NC7=O)nn(C)c6c5)CC4)ncc3Cl)ccc21` (centres unmarked) [Example 35, 3-[6-[4-[5-chloro-4-[(1-methyl-2-oxo-indolin-5-yl)amino]pyrimidin-2-yl]piperazin-1-yl]-1-methyl-indazol-3-yl]piperidine-2,6-dione]: above 60%. As to `CN1C(=O)Cc2cc(Nc3nc(N4CCC(Nc5ccc6c(C7CCC(=O)NC7=O)nn(C)c6c5)CC4)ncc3C#N)ccc21` (centres unmarked) [Example 36, 2-(4-((3-(2,6-dioxopiperidin-3-yl)-1-methyl-1H-indazol-6-yl)amino)piperidin-1-yl)-4-((1-methyl-2-oxoindolin-5-yl)amino)pyrimidine-5-carbonitrile], the Percent BCL6 remaining at maximal degradation (Ycon) was above 60%. In the case of `CN1C(=O)Cc2cc(Nc3nc(N4CCN(c5ccc6c(C7CCC(=O)NC7=O)nn(C)c6c5)C(=O)C4)ncc3Cl)ccc21` (centres unmarked) [Example 37, 3-(6-(4-(5-chloro-4-((1-methyl-2-oxoindolin-5-yl)amino)pyrimidin-2-yl)-2-oxopiperazin-1-yl)-1-methyl-1H-indazol-3-yl)piperidine-2,6-dione] it was above 60%; in that of `CC1C(=O)N(c2ccc3c(C4CCC(=O)NC4=O)nn(C)c3c2)CCN1c1ncc(Cl)c(Nc2ccc3c(c2)CC(=O)N3C)n1` (centres unmarked) [Example 38, 3-(6-(4-(5-chloro-4-((1-methyl-2-oxoindolin-5-yl)amino)pyrimidin-2-yl)-3-methyl-2-oxopiperazin-1-yl)-1-methyl-1H-indazol-3-yl)piperidine-2,6-dione], above 60%.

Regarding `CC1CN(c2ccc3c(C4CCC(=O)NC4=O)nn(C)c3c2)C(=O)CN1c1ncc(Cl)c(Nc2ccc3c(c2)CC(=O)N3C)n1` (centres unmarked) [Example 39, 3-(6-(4-(5-chloro-4-((1-methyl-2-oxoindolin-5-yl)amino)pyrimidin-2-yl)-5-methyl-2-oxopiperazin-1-yl)-1-methyl-1H-indazol-3-yl)piperidine-2,6-dione], the Percent BCL6 remaining at maximal degradation (Ycon) was above 60%. For `CN1C(=O)Cc2cc(Nc3nc(NC4CCN(c5ccc6c(C7CCC(=O)NC7=O)nn(C)c6c5)CC4)ncc3Cl)ccc21` (centres unmarked) [Example 40, 3-(6-(4-((5-Chloro-4-((1-methyl-2-oxoindolin-5-yl)amino)pyrimidin-2-yl)amino)piperidin-1-yl)-1-methyl-1H-indazol-3-yl)piperidine-2,6-dione], the Percent BCL6 remaining at maximal degradation (Ycon) is above 60%. As for `Cn1nc(C2CCC(=O)NC2=O)c2ccc(NC3CCN(c4ncc(Cl)c(Nc5ccc6c(c5)CC(=O)N6CCO)n4)CC3)cc21` (centres unmarked) [Example 41, 3-[6-[[1-[5-chloro-4-[[1-(2-hydroxyethyl)-2-oxo-indolin-5-yl]amino]pyrimidin-2-yl]-4-piperidyl]amino]-1-methyl-indazol-3-yl]piperidine-2,6-dione], the Percent BCL6 remaining at maximal degradation (Ycon) is 20 to 60%. In the case of `CN1C(=O)Cc2cc(Nc3nc(N4CC[C@H](Nc5ccc6c(C7CCC(=O)NC7=O)nn(C)c6c5)[C@@H](F)C4)ncc3Cl)ccc21` (stereo partly drawn) [Example 42, 3-(6-(((3S,4S)-1-(5-chloro-4-((1-methyl-2-oxoindolin-5-yl)amino)pyrimidin-2-yl)-3-fluoropiperidin-4-yl)amino)-1-methyl-1H-indazol-3-yl)piperidine-2,6-dione] it was 20 to 60%; in that of `CN1C(=O)Cc2cc(Nc3nc(N4CC[C@H](Nc5ccc6c(C7CCC(=O)NC7=O)nn(C)c6c5)[C@H](F)C4)ncc3Cl)ccc21` (stereo partly drawn) [Example 43, 3-(6-(((3R,4S)-1-(5-Chloro-4-((1-methyl-2-oxoindolin-5-yl)amino)pyrimidin-2-yl)-3-fluoropiperidin-4-yl)amino)-1-methyl-1H-indazol-3-yl)piperidine-2,6-dione], above 60%. Consider `CN1C(=O)Cc2cc(Nc3nc(N4CC[C@@H](Nc5ccc6c(C7CCC(=O)NC7=O)nn(C)c6c5)[C@@H](F)C4)ncc3Cl)ccc21` (stereo partly drawn) [Example 44, 3-(6-(((3S,4R)-1-(5-chloro-4-((1-methyl-2-oxoindolin-5-yl)amino)pyrimidin-2-yl)-3-fluoropiperidin-4-yl)amino)-1-methyl-1H-indazol-3-yl)piperidine-2,6-dione], for which the Percent BCL6 remaining at maximal degradation (Ycon) is above 60%. `CN1C(=O)Cc2cc(Nc3nc(N4CC[C@@H](Nc5ccc6c(C7CCC(=O)NC7=O)nn(C)c6c5)[C@H](F)C4)ncc3Cl)ccc21` (stereo partly drawn) [Example 45, 3-(6-(((3R,4R)-1-(5-chloro-4-((1-methyl-2-oxoindolin-5-yl)amino)pyrimidin-2-yl)-3-fluoropiperidin-4-yl)amino)-1-methyl-1H-indazol-3-yl)piperidine-2,6-dione]: the Percent BCL6 remaining at maximal degradation (Ycon) is 20 to 60%.

In the case of `CN1C(=O)Cc2cc(Nc3nc(N4CC[C@@H](N(C)c5ccc6c(C7CCC(=O)NC7=O)nn(C)c6c5)[C@H](F)C4)ncc3Cl)ccc21` (stereo partly drawn) [Example 46, 3-[6-[[(3R,4R)-1-[5-Chloro-4-[(1-methyl-2-oxo-indolin-5-yl)amino]pyrimidin-2-yl]-3-fluoro-4-piperidyl]-methyl-amino]-1-methyl-indazol-3-yl]piperidine-2,6-dione], the Percent BCL6 remaining at maximal degradation (Ycon) was above 60%. In the case of `CC1CCN(c2ncc(Cl)c(Nc3ccc4c(c3)CC(=O)N4C)n2)CCC1Nc1ccc2c(C3CCC(=O)NC3=O)nn(C)c2c1` (centres unmarked) [Example 47, 3-(6-((1-(5-chloro-4-((1-methyl-2-oxoindolin-5-yl)amino)pyrimidin-2-yl)-5-methylazepan-4-yl)amino)-1-methyl-1H-indazol-3-yl)piperidine-2,6-dione] it was above 60%; in that of `CN1C(=O)Cc2cc(Nc3nc(N4CCC(Nc5ccc6c(C7CCC(=O)NC7=O)nn(C)c6c5)CC4)ncc3Cl)ccc21` (centres unmarked) [Example 52, 3-(6-((1-(5-chloro-4-((1-methyl-2-oxoindolin-5-yl)amino)pyrimidin-2-yl)piperidin-4-yl)amino)-1-methyl-1H-indazol-3-yl)piperidine-2,6-dione], 20 to 60%; in that of `CN1C(=O)Cc2cc(Nc3nc(N4CC[C@@H](Nc5ccc6c(C7CCC(=O)NC7=O)nn(C)c6n5)[C@H](O)C4)ncc3Cl)ccc21` (stereo partly drawn) [Example 55, 3-(6-(((3R,4R)-1-(5-chloro-4-((1-methyl-2-oxoindolin-5-yl)amino)pyrimidin-2-yl)-3-hydroxypiperidin-4-yl)amino)-1-methyl-1H-pyrazolo[3,4-b]pyridin-3-yl)piperidine-2,6-dione], 20 to 60%.
